Like-named read-outs stand apart in the source and are kept apart here. One block for each compound: values may come before it.
Key:
[1] = system: taste cells in porcine taste tissue (fungiform papilla taste bud); experiment: Multiphoton fluorescence lifetime imaging (MP-FLIM) of stimulated porcine taste tissue in static bath; type: cell-based; details: for response of taste cells to stimuli (calcium green lifetime imaging): bulk addition: 0.5 mL of 25-micromolar cycloheximide, then 0.5 mL of 1-millimolar sucralose, in deionized water
Text: Fresh porcine taste tissue was procured in the prescribed manner from a local slaughterhouse and transported, after removal from the tongue, in chilled, oxygenated Tyrode's solution to the preparation laboratory. The tissue was affixed to a coated Petri dish and taste buds iontophoretically loaded (1.0 microampere) with calcium green dextran dye (1 mmol/L in DI water) via a drawn capillary pipette. Several taste pores were loaded on a papilla, with several papillae loaded overall, providing 3-5 taste buds loaded with dye. The tissue was mounted in a chamber and placed onto the microscope stage. The sample was imaged using the 63× water-dipping objective, 60% laser power at 810-nm excitation, in xzy mode (256×256 pixels) in order to image the taste bud and surface features at once in a longitudinal section. The photomultiplier tube gain on the FLIM system was set to 85% and the initial Leica settings (non-optimized) were used to capture FLIM images of the tissue over a 10-15 minute time course.
The same field of view was then imaged using the multiphoton lifetime imaging capability of the instrument. The optical conditions for lifetime mage collection are identical to intensity-based imaging, except that in photon counting mode the collection requires 30 seconds in this case for adequate signal to noise. The lifetimes were calculated by a double exponential fit of the decay curves and color-coded based on average lifetime per pixel. Red values are shorter lifetimes in this case. […] The shortest lifetime evident in this image is associated with the apical end of the taste cell directly below the pore. At rest, the average lifetime for all of the cells in the field of view is 1,634 picoseconds. The short lifetime component of the fit was set to 350 picoseconds, an estimate of the short lifetime component based on initial calcium calibrations in order to facilitate rapid fitting of the data for comparison.
The taste bud was exposed to several gross stimuli: cycloheximide and sucralose in deionized water. The purpose of this stimulus experiment was to determine if the bud would remain viable during the time course of a stimulus and if possible, to determine the presence of a gross response via lifetime imaging. The stimulants were applied via bulk addition to the chamber holding the tissue: 0.5 mL of 25-micromolar cycloheximide was first added after removal of 1 mL buffer; 0.5 mL of 1 -millimolar sucralose added after the cycloheximide stimulus and removal of additional 1 mL buffer. The MP-FLIM image data were collected at approximately 1-minute intervals using the same optical and exposure conditions used to generate the resting image described above. […]

[2] = system: taste bud cells in porcine taste tissue; experiment: Multiphoton fluorescence intensity imaging of stimulated porcine taste tissue in flowing perfusing medium; type: cell-based
Experimental: Two papillae in close proximity to one another were loaded in this manner. The papillae were extracted from the larger piece of tissue and placed into the open chamber configuration (this work was done prior to that using the closed, gasketed chamber). The tissue was repeatedly stimulated with 20 mmol/L citric acid using the 1.0 mL/min flow rate and 1.0 mL sample loop, switched to the load position as time series data acquisition began. The imaging parameters were as follows: 400 Hz galvo scan rate, 2× zoom with 63× objective, 256×256 pixel image format, 2× frame average, 810 nm laser at 36%, and 0.5 Hz frame scan rate. The tissue was received at approximately 8:00 am, transported in oxygenated Tyrode's solution to the lab, loaded at approximately 10:00 am and imaged at approximately 11:00 am. Cells from two adjacent taste buds within the second papilla were imaged in xyzt mode at a depth of approximately 35 micrometers. […] The time series data were processed using the alignment tools development to address the tissue movement issues. […] However, the movement in this case was primarily in the x-y plane, and therefore the alignment algorithm provided sufficient alignment. […] However, the relative difference in emission and differences in slope due to photobleaching makes comparison between cells difficult. […]

[3] = Calcium green-1 dextran dissociation constant from MP-FLIM lifetime and intensity data in CaEGTA calcium buffers; type: binding
Experimental: Calcium buffers (CaEGTA) and calcium green-1 dextran (CaGD) were purchased from Molecular Probes. The calcium buffers provide free Ca^+2 over a nanomolar to millimolar concentration range in a matrix closely matching the pH and ionic strength of the cytosol. The lifetimes and relative contributions of these bound and unbound decays are determined by fitting multi-exponential curves to the instrumental data. Buffer kit #2 (0-39 micromoles/L free Ca^+2) was used in this work to determine the response of calcium green dextran to low calcium concentrations. Initial work was done with Buffer kit #3, but the range of free Ca^+2 (0-1000 micromoles/L) was too high for the dye chosen. Calcium ion concentration is approximately 0.1 micromoles/L in resting cell's cytoplasm and in the increases to the micromolar range upon stimulus (Pollard, 2002).
Samples were analyzed in a random order during each experiment using the MP-FLIM system and a quartz solution cell. […] Each sample produced two full fields of view (256×256) where each image pixel contains a decay curve. As the calcium green dextran was present in bound and unbound forms, double exponential fits were performed using SPCImage (version 2.7.7238.0). The double exponential decays were calculated for each sample on the entire field of view, generating 65,536 values for each field of view. The average decay for each field of view was calculated as a sum of the per pixel lifetime values weighted by the amplitudes (contributions) of each lifetime to each pixel. Table 1 details the results for the calculation of the unbound dye fluorescence lifetime. The average τ1 from the measurements is 405.6 ps, with a sample standard variance of approximately 1.0 ps.
The balance of the calcium buffer data were analyzed using the SPCImage software under similar conditions as given in Table 1, with the exception that the short lifetime was fixed to 405.6 ps in the model parameters settings box. In addition, the zero Ca^+2 buffer average lifetimes were recalculated using the fixed short lifetime value. Due to instabilities in the software interface, the short lifetime was designated as τ2 in the fit parameters box. A second order polynomial fit of average lifetime in picoseconds versus calcium concentration in micromoles/L for a calcium concentration range from 0 to 0.602 micromoles/L yields the relationship: τavg=−3047 c^2+4472 c+601, R^2=0.9976; RMSE=30.9 ps.
A significant reported advantage of fluorescence lifetime measurements is that the dependence of fluorescence lifetime on calcium concentration is insensitive to dye concentration provided the dye itself is at low enough concentrations so as to not buffer the calcium ion in the cell or the cuvette. In order to test this property in the calcium green dextran system, additional sample sets were made up with 2.5-micromoles/L dye and 9.9-micromoles/L dye in the buffer solutions. The variations in lifetime data and intensity data with dye concentrations are given in FIG. 2 and FIG. 3, respectively. The lifetime data appears to be invariant with dye concentration, where the average standard deviation (variation in lifetime with dye concentration at each calcium concentration) for the lifetime data on the order or 25 ps. In contrast, the intensity variability is significant, where the intensity of the fluorescence is dependent upon the calcium concentration and the dye concentration.
Finally, calcium green-1 dissociation constants were calculated for the various dye concentrations using lifetime and intensity-based data sets.

[4] = read-out: KD for calcium; cited from earlier work

Compound: OC[C@H]1O[C@H](O[C@]2(CCl)O[C@H](CCl)[C@@H](O)[C@@H]2O)[C@H](O)[C@@H](O)[C@H]1Cl [sucralose]
- calcium concentration surrounding the taste cells during stimulus ([1]; 0.5 mL of 1-millimolar sucralose, bulk addition): decreased
- change of calcium green lifetime around the taste cells on stimulus ([1]; 0.5 mL of 1-millimolar sucralose, bulk addition after cycloheximide stimulus, images at about 1-minute intervals): significant shortening of the calcium green lifetime around the taste cells
- response of taste cells to stimuli (calcium green lifetime imaging) [1]: taste cells responded to the stimuli

Compound: O=C(O)CC(O)(CC(=O)O)C(=O)O [citric acid]
- baseline corrected average fluorescence intensity per cell (intracellular calcium response) ([2]; 20 mmol/L citric acid, 1.0 mL/min flow, 1.0 mL sample loop, seven cells in field of view): strong response to the stimulus in cell 1 with lower magnitude responses in other cells
- response to successive stimuli ([2]; three successive 20 mmol/L citric acid stimuli, 5 minutes artificial saliva between stimuli): decrease in response to subsequent stimulus

- Kd ([3]; dye concentration 2.5 micromoles/L, read-out: Kd, Intensity Data): 0.482 µM
- Kd ([3]; dye concentration 2.5 micromoles/L, read-out: Kd, Lifetime Data): 0.342 µM
- Kd ([3]; dye concentration 5.0 micromoles/L, read-out: Kd, Intensity Data): 0.52 µM
- Kd ([3]; dye concentration 5.0 micromoles/L, read-out: Kd, Lifetime Data): 0.329 µM
- Kd ([3]; dye concentration 9.9 micromoles/L, read-out: Kd, Intensity Data): 0.382 µM
- Kd ([3]; dye concentration 9.9 micromoles/L, read-out: Kd, Lifetime Data): 0.289 µM
Compound: calcium green-1 dextran
- Kd [4]: ~0.54 µM

Compound: C[C@@H]1C[C@@H]([C@H](O)CC2CC(=O)NC(=O)C2)C(=O)[C@@H](C)C1 [cycloheximide]
- response of taste cells to stimuli (calcium green lifetime imaging) [1]: taste cells responded to the stimuli

Source: patent US7279338B2, “Methods for determining cellular response to stimuli” (Cargill, Incorporated, priority 2004, dated 2007)
